From patent publication US6011041A, “Use of anhydrovinblastine” (priority 1996, dated 2000)
Counter-ions that a name gives are not always drawn. Like-named read-outs stand apart in the source and are kept apart here.

How the values were obtained:
[1] = system: MCF7 human breast carcinoma; assay: MTT dose response cytotoxicity, MCF7 (Table 1); assay type: cell-based; details: read-out: DRUG IC50
Protocol: (§1) Cytotoxicity experiments on AHVB were performed as direct comparisons with vincristine and navelbine in order to assess its inherent antineoplastic profile against a variety of tumour cell types relative to other relevant vinca alkaloids. The cytotoxicity of AHVB was investigated in vitro against a panel of tumour cell lines of varying lineage in order to determine the specificity of its antitumour activity with respect to cell type. The tumour lines studied were P388 lymphocytic leukemia (a murine lymphocytic leukemia), Noble (Nb) rat U17 lymphoma, MCF7 human breast carcinoma, H460 human non-small cell lung carcinoma, K562 human erythrokeukemia and LS180 human colon carcinoma based on established NCI in vitro new anticancer drug cytotoxicity screening protocols.
(§2) Standard dose response cytotoxicity assays (R. Mosmass, J. Immunol. Meth., 65:55-64, 1983) were utilized to determine the IC50 (drug concentration required to induce 50% inhibition of tumour cell growth) for vincristine, navelbine and AHVB. The indicated cell lines were obtained from either the ATCC or NCI tumor repository and were cultured in tissue culture media by standard techniques well known to those skilled in the art, prior to dilution to a defined cell concentration required for the studies in 96 well plates.
(§3) A wide range of drug concentrations were exposed to tumour cells growing at log phase in 96-well microtitre plates. Cell concentrations depended on the cell line as well as the length of time to be cultured. Typically, P388 cells were plated at a concentration of 30,000, 2,000 and 750 cells per well for studies lasting 1, 3 and 7 days, respectively MCF7 cells were plated at a concentration of 7,000 and 1,500 cells per well for studies lasting 3 and 7 days, respectively. H460 cells were plated at a concentration of 2,500 and 1,000 cells per well for studies lasting 3 and 7 days, respectively. K562 cells were plated at a concentration of 1,500 and 10,000 cells per well for studies lasting 1 and 3 days, respectively. LS180 cells were plated at a concentration of 5,000 and […] cells per well for studies lasting 3 and 7 days, respectively. After plating all cell lines were incubated (CO2 incubator at 37° C., 5% CO2) for 24 hours prior to addition of the cytotoxic agent (See Table 1). Subsequently the plates were incubated for the indicated time period. At specified times, cells were washed and subsequently exposed to the dye inclusion marker MTT (3-(4,5-dimethylthiazol-2-yl)-2,5diphenyl tetrazolium), which accumulated into viable cells. MTT was added to the cells at a final concentration of 50 μg per well. After a 4 hour incubation, the cells were washed free of media and unreacted MTT, prior to addition of DMSO which was required to solubilize the insoluble formazan precipitate that formed in viable cells. After the sample was mixed through repeated pipetting, the colored product was measured using a plate reader operating at 570 nm. The absorbance values obtained for cells cultured in the absence of drug was assumed to represent 100% viability. Experiments were repeated to substantiate any differences noted between […] and other vinca alkaloids.

[2] = system: LS180 human colon carcinoma; assay: MTT dose response cytotoxicity, LS180 (Table 1); assay type: cell-based; details: read-out: DRUG IC50
Protocol: as §1, §2, §3

Nb2-U17 lymphoma = Nb2-U17 lymphoma transplant efficacy in Nb rats (FIGS. 2-3); assay type: in vivo, rat; details: for anti-tumour effect at 50% of maximum tolerated dose, relative potency: half subacutely toxic dose, single i.p. (AHVB 1.5, navelbine 1.0, vincristine 0.35 mg/kg); for time to regression of tumours to essential non-palpability: single i.p. subacutely toxic dose (AHVB 3.0, navelbine 2.0, vincristine 0.7 mg/kg); for recurrence of tumours after day 10 / time after which most of the lost animal weight was regained: single i.p. subacutely toxic dose, Nb2-U17 rats
Description: The U17 cell line was originally derived from a transplantable malignant lymphoma that arose spontaneously in male Noble rats (British Columbia Cancer Research center Joint Animal Breeding Facility with parents obtained from the National Institutes of Health, Bethesda, Md.). The cell line is prolactin dependent and can readily be cultured in vitro. U17 derived solid tumours are generated by subcutaneous injection (via the trocar method) of a small (2 mm^2) piece of tumour tissue obtained from male Noble rat. Tumour tissue used for the implants arose two weeks after injection of 5×10^6 U17 cells (from culture) subcutaneously in the nape of the neck. For assessing the anti-tumour activity of AHVB, tumour bearing animals (2-4 gm tumours) were given a single treatment of drug and tumour size was measured as a function of time following treatment. The anti-tumour activity was assessed at a series of different doses in order to determine the maximum therapeutic dose of AHVB. Comparative studies between vincristine, vinblastine and AHVB were performed.
Cultures of the non-metastatic, pre-T Nb2 lymphoma line originally developed at The University of British Columbia and designated Nb2-U17 (Anticancer Research 14:2485-2492, 1994), and are available from the British Columbia Cancer Research Center. Cells from exponentially growing Nb2-U17 suspension cultures were injected subcutaneously into methoxyflurane-anesthetized, mature male Nb rats (5 rats; 310-380 grams; 5×10^6 cells/rat in 1 ml of culture medium) at the nape of the neck using a 1.5" 20-gauge needle. At about 3 weeks, when the tumours reached a size of 4-7 cm (length+width), the animals were sacrificed and the tumours used for transplantation as described below.
A tumour from a rat was excised, minced and the tumour tissue was put into trocars (2", 13 gauge). The tissue samples were implanted subcutaneously in the nape of the neck of methoxyflurane-anesthetized male Nb rats (248-404 grams; 1 trocar per rat). This procedure was repeated 5 times to get a total of 60 tumour-bearing rats to be used for efficacy studies of the 3 drugs.
When the tumours were well established (1.5-2 weeks later), three separate groups of 20 rats, as closely matched as possible in terms of both tumour weight and rat weight, were selected for administration of the three test articles (i.e. one group for each test article).
Vincristine was administered to rats weighing 281-384 grams, bearing tumours weighing 6.3-16.3 grams. Navelbine was administered to rats weighing 274-389 grams bearing tumours weighing 9.1-23.3 grams. AHVB was administered to rats weighing 303-400 grams, bearing tumours weighing 7.9-25.9 grams. Tumour weights were estimated using the hemi-ellipsoid model (weight in grams=[…] in cm).
The oncolytic effects of each of the three drugs were assessed at a subacutely toxic dose, determined for each drug in preliminary studies using non-tumour-bearing, mature male Nb rats, i.e. 3.0, 2.0 and 0.7 mg/kg for […], navelbine and vincristine, respectively as illustrated in FIG. 2. In addition, each drug was assessed at 50% and 25% of its subacutely toxic dose. Five tumour-bearing rats were used to evaluate the effect at each dose level. The drugs were administered intraperitoneally as a single bolus in a volume of 0.19-0.31 ml, as indicated by the weight of the animals. To this end, drug preparations were diluted to appropriate concentrations using sparged saline adjusted with acetic acid to pH 4.2. For each drug, a group of 5 control rats received an intraperitoneal injection of the equivalent amount of saline (pH 4.2). The tumour-bearing rats were organized in the following groups:
Following administration of the test articles, the animals; weight and tumour size (using calipers) were determined daily until the tumour reached an estimated weight of 35 grams, or started to ulcerate, at which times the animals were sacrificed (by carbondioxide inhalation) and subjected to necropsy. […]

[3] = 72 h, MCF7, exposure time 3 days
[4] = 168 h, MCF7, exposure time 7 days
[5] = 72 h, LS180, exposure time 3 days
[6] = 168 h, LS180, exposure time 7 days

For CCC1=CC2CN(CCc3c([nH]c4ccccc34)C(C(=O)OC)(c3cc4c(cc3OC)N(C)C3C(O)(C(=O)OC)C(OC(C)=O)C5(CC)C=CCN6CCC43C65)C2)C1 (centres unmarked) [AHVB, 3',4'-anhydrovinblastine], the IC50 ([1]; MCF7, 72 h) was over 2500 nM, the IC50 ([1]; MCF7, 168 h) was 31.3 ± 12.4 nM and the IC50 ([2]; LS180, 72 h) was over 50 nM. For the same compound, the IC50 ([2]; LS180, 168 h) was 17.5 nM, the “anti-tumour effect at 50% of maximum tolerated dose, relative potency” value (Nb2-U17 lymphoma) was “less potent than vincristine” and the “time to regression of tumours to essential non-palpability” value (shortened to “time … to essential non-palpability”) (Nb2-U17 lymphoma) was at most 5 days. The “recurrence of tumours after day 10” value (Nb2-U17 lymphoma) was “occurred to about the same extent” and the “time after which most of the lost animal weight was regained” value (shortened to “time after which most”) (Nb2-U17 lymphoma) was “about 17 days”.

CCC1=C[C@@H]2CN(C1)Cc1c([nH]c3ccccc13)[C@@](C(=O)OC)(c1cc3c(cc1OC)N(C)[C@H]1[C@@](O)(C(=O)OC)[C@H](OC(C)=O)[C@]4(CC)C=CCN5CC[C@]31[C@@H]54)C2 [navelbine, 3',4'-didehydro-4'-deoxy-C'-norvincaleukoblastine-di-L-tartrate] was tested, and the IC50 [1, 3] was over 2500 nM, the IC50 [1, 4] was 2.6 ± 1.6 nM and the IC50 [2, 5] was over 50 nM. For the same compound, the IC50 [2, 6] was 0.5 nM, the “anti-tumour effect at 50% of maximum tolerated dose, relative potency” value (Nb2-U17 lymphoma) was “less potent than AHVB” and the “time … to essential non-palpability” value (Nb2-U17 lymphoma) was at most 5 days. The “recurrence of tumours after day 10” value (Nb2-U17 lymphoma) was “occurred to about the same extent” and the “time after which most” value (Nb2-U17 lymphoma) was “about 17 days”.

CC[C@]1(O)C[C@H]2CN(CCc3c([nH]c4ccccc34)[C@@](C(=O)OC)(c3cc4c(cc3OC)N(C=O)[C@H]3[C@@](O)(C(=O)OC)[C@H](OC(C)=O)[C@]5(CC)C=CCN6CC[C@]43[C@@H]65)C2)C1 [vincristine, Sulfate of 22-oxovincaleukoblastine] gave an IC50 [1, 3] of over 2500 nM, an IC50 [1, 4] of 2.6 ± 1.6 nM and an IC50 [2, 5] of over 50 nM. For the same compound, the IC50 [2, 6] was 1.5 nM, the “time … to essential non-palpability” value (Nb2-U17 lymphoma) was at most 5 days and the “recurrence of tumours after day 10” value (Nb2-U17 lymphoma) was “recurrence of tumours was not observed”. For the same compound, the “time after which most” value (Nb2-U17 lymphoma) was “about 17 days”.
